Measured values as given in article PMC6376317, “Fluoromethylcyclopropylamine derivatives as potential in vivo toxicophores – A cautionary disclosure” (Bioorganic & Medicinal Chemistry Letters, 2019).
Entries after “also recorded” stand apart in the source; their conditions may differ. Read-outs that look alike come from different tables or passages of the source.

Assays:
[1] = In vivo pharmacokinetics in CD-1 mice; set-up: species or system mouse; settings: for In vivo half-life: initial in vivo PK studies; for Fold exposure relative to cell IC50: defined as [Cmax(free)]/Cell IC50
Protocol: (§1) Pharmacokinetics were studied in 6-8 week old male CD-1 mice following single intravenous or oral administration. Compounds were formulated as solutions comprising up to 10% DMSO with up to 10% Tween80 in saline at a concentration of approximately 1 mM. Doses were administered at 1 mg/kg (intravenous) or 5 mg/kg (oral gavage) unless otherwise stated. Blood samples were collected as dried blood spots (Agilent Bond Elut DMS cards) and assayed following solvent extraction using methanol, through a phospholipid removal plate (Phree phospholipid removal plates, Phenomenex) followed by LC-MS/MS analysis. The time-points for blood collection were as follows: oral (0.5, 1, 3, 5 and 24 h); intravenous (0.1, 0.25, 0.75, 2, 5 and 24 h). The resulting concentration-time data were analyzed by non-compartmental methods (PK Solver, Excel Add-In).

[2] = Human liver microsomal stability; assay type: in vitro ADME; settings: liver microsomes, read-out: Human Microsomes T1/2
Description: Table 1 Improvements to metabolic stability through cyclopropyl modification. | column: Human Microsomes T1/2 (minutes)

CD-1 mice = assay: In vivo tolerability / toxicity observation during PK studies; set-up: species or system mouse; settings: for Toxicity Observed / Time of onset of ataxia after oral dosing: mice; for Tolerability in vivo: oral doses from 5 mg/kg to 160 mg/kg; for Time of onset of ataxia after oral dosing: oral dosing arm, 5 mg/kg
Protocol: We therefore initiated a dose-escalation study to examine dose versus exposure of the compound. […] Our following study, with derivative 12, incorporated enhanced monitoring and here we observed the onset of ataxia shortly after the 5 h sampling time point, and exclusively in the oral dosing arm of the study, despite lower absolute and free drug exposures in these dosing arms.
as §1

PARG [3] = molecular target: T1, PARG (Homo sapiens, UniProt Q86W56); assay type: biochemical; settings: read-out: PARG Enzyme Activity
T1 sequence (Q86W56 whole entry, species assumed): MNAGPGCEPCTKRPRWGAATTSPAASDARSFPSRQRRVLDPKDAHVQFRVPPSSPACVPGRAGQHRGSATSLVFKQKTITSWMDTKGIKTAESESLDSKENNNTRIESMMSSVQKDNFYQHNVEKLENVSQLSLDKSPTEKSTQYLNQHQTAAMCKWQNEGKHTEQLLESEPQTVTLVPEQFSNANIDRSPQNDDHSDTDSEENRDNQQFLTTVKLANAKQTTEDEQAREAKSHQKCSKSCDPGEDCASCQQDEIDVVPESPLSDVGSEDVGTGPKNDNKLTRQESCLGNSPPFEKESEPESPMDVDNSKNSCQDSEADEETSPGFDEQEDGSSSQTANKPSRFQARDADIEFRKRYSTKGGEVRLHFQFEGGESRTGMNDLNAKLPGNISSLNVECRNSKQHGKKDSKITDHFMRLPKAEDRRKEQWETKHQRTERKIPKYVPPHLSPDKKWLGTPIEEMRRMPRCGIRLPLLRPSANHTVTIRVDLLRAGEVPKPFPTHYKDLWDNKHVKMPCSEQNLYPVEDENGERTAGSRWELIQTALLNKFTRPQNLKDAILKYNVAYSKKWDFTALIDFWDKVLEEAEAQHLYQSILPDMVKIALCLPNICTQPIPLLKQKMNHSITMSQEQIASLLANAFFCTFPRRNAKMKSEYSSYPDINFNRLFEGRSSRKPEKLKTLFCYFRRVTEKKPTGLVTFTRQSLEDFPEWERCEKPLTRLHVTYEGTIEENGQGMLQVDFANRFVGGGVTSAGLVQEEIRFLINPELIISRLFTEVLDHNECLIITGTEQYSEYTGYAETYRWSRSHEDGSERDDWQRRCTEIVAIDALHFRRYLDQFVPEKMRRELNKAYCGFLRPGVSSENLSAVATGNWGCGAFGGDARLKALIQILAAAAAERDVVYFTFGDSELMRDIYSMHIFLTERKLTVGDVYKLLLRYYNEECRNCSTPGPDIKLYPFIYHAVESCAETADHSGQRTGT

[4] = Mouse microsomal stability; assay type: in vitro ADME; settings: microsomes, read-out: Mouse Microsomes T1/2
PARG [5] = molecular target: T1, PARG; assay type: cell-based; settings: read-out: PARG Cell Assay
[6] = Metabolite identification studies; assay type: in vitro ADME; settings: formed via removal of the cyclopropylmethyl moiety
Description: In an attempt to improve the in vivo PK profile, we undertook a series of metabolite identification studies, to determine the key sites of metabolism on 1 and 2.

[7] = oral dose 5 (mg/kg), male CD-1 mice
[8] = geometric mean of at least two independent determinations

Compound | Fold exposure relative to cell IC50 [1, 7] | half-life [2] | Toxicity Observed (CD-1 mice; oral dose 5 (mg/kg)) | IC50 (PARG [3]; [8]) | half-life [4] | IC50 (PARG [5]; [8]) | other results
Cn1cc(Cn2c(=O)c3cc(S(=O)(=O)NC4(C)CC4)ccc3n(Cc3ccn(C)n3)c2=O)cn1 [Compound 1] | 0.96 | 53 min | No | 20 nM | 22 min | 90 nM | In vivo half-life ([1]; in words): short half-lives; Fold exposure relative to cell IC50 ([1]; oral dose 160 (mg/kg), mice): 350; Toxicity Observed (CD-1 mice; oral dose 160 (mg/kg)): No; Tolerability in vivo (CD-1 mice): well tolerated; Major metabolite [6]: primary sulphonamides 3 and 4
Cc1cc(Cn2c(=O)c3cc(S(=O)(=O)NC4(C)CC4)ccc3n(C)c2=O)on1 [Compound 2] |  |  |  |  |  |  | In vivo half-life ([1]; in words): short half-lives; Tolerability in vivo (CD-1 mice): well tolerated; Major metabolite [6]: primary sulphonamides 3 and 4
Cn1cc(Cn2c(=O)c3cc(S(=O)(=O)NC4(CF)CC4)ccc3n(Cc3ccn(C)n3)c2=O)cn1 [Compound 5] | 0.18 | 82 min | No | 20 nM | 37 min | 170 nM | In vivo clearance ([1]; mice, in words): very rapidly cleared after oral dosing; also recorded: high clearance
Cn1cc(Cn2c(=O)c3cc(S(=O)(=O)NC4(C(F)F)CC4)ccc3n(Cc3ccn(C)n3)c2=O)cn1 [Compound 6] |  | 71 min |  | 320 nM | 42 min | 1250 nM | 
Cn1cc(Cn2c(=O)c3cc(S(=O)(=O)NC4(C(F)(F)F)CC4)ccc3n(Cc3ccn(C)n3)c2=O)cn1 [Compound 7] |  | 102 min |  | 3600 nM | 38 min | 4100 nM | 
[2H]C([2H])([2H])C1(NS(=O)(=O)c2ccc3c(c2)c(=O)n(Cc2cnn(C)c2)c(=O)n3Cc2ccn(C)n2)CC1 [Compound 8] |  | 34 min |  | 30 nM | 18 min | 70 nM | 
CCn1c(=O)n(Cc2cnn(C)c2)c(=O)c2cc(S(=O)(=O)NC3(C)CC3)ccc21 [Compound 9] |  |  | No |  | 47 min |  | 
CCn1c(=O)n(Cc2cnn(C)c2)c(=O)c2cc(S(=O)(=O)NC3(CF)CC3)ccc21 [Compound 10] | 15 |  | well tolerated and No |  | 102 min |  | Toxicity Observed (CD-1 mice; oral dose 10 (dose-escalation study)): one animal was found dead on study; also recorded: liver toxicity was the probable cause of death; IC50 (PARG [3]): 100 nM; IC50 (PARG [5]): 80 nM
Cn1cc(Cn2c(=O)c3cc(S(=O)(=O)NC4(C)CC4)ccc3n(C)c2=O)cn1 [Compound 11] |  |  | No |  | 82 min |  | 
Cn1cc(Cn2c(=O)c3cc(S(=O)(=O)NC4(CF)CC4)ccc3n(C)c2=O)cn1 [Compound 12] | 61 |  | Ataxia |  | 285 min |  | Total exposure and Cmax relative to compound 1 ([1]; in vivo, mice): over four-fold lower; Time of onset of ataxia after oral dosing (CD-1 mice): > 5 h; IC50 (PARG [3]): 630 nM; IC50 (PARG [5]): 290 nM
CCn1c(=O)n(Cc2cc(C)on2)c(=O)c2cc(S(=O)(=O)NC3(CF)CC3)ccc21 [Compound 13] | 0.28 |  | Ataxia | 1520 nM | 121 min | 6600 nM | Time of onset of ataxia after oral dosing (CD-1 mice): > 5 h
